Like-named read-outs stand apart in the source and are kept apart here.
Tested on: human Ewing's sarcoma TC-71
Type: in vivo
Settings: for Average body weight change in % per mouse at nadir / Biological interpretation / Drug death / Regressions Complete / Regressions Partial / Tumor free survivors at day 120 / day of nadir / ΔT/ΔC in % (day 21): 16
Description: This efficacy may be quantified, for example, as changes in tumor volume for each treated (T) and control (C) group, which are calculated for each animal and each day by subtracting the tumor volume on the day of first treatment (staging day) from the tumor volume on the specified observation day. This allows calculating the tumor growth inhibition: ΔT/ΔC=(median delta T/median delta C)×100. Individual tumor volume changes from baseline are thereafter analyzed by a non-parametric two-way ANOVA-TYPE (with factors: group and repeated days) followed by a post-hoc contrasts analysis, with Bonferroni-Holm adjustment for multiplicity, comparing all treated groups to the control group. […] A probability less than 5% (p<0.05) was considered as significant.
Based on the National Cancer Institute (NCl) standards, a ΔT/ΔC≦40% is the minimal level required to declare activity.
The tumor doubling time (in days; Td) was estimated from the plot of the log linear growth of the control group tumors in exponential growth (100 to 1000 mm^3 range) [T. H. Corbett et al., Cancer, 40: 2660-2680 (1977); F. M. Schabel et al., Cancer Drug Development, Part B, Methods in Cancer Research, 17: 3-51, New York, Academic Press Inc. (1979)].
This efficacy may also be quantified by the number of tumor regressions observed after therapy. Individual mice reporting a tumor volume ≦50% of the Day 0 measurement for two consecutive measurements over a seven day period were considered partial responders (PR). Individual mice lacking palpable tumors (<4×4 mm^2 for two consecutive measurements over a seven day period) were classified as complete responders (CR); a CR that persisted until study completion was considered a tumor-free survivor (TFS).
The animals subjected to the experiment are subcutaneously grafted unilaterally with approximately 30 mg of a tumor fragment on day 0. The animals are implanted with a human tumor xenografted in immunocompromized mice. Several days post tumor implantation, mice are randomized according to their body weight to the different groups of treatments and controls. The animals are observed every day. […] The groups are then weighed once or twice a week until the end of the trial.
The tumors are measured 1 to 5 times a week, depending on the tumor doubling time, until the tumor reaches approximately 1,000 mm^3, or until the animal dies (if this occurs before the tumor reaches 1,000 mm^3). The animals are necropsied immediately after euthanasia or death.
The selected tumor model was a human Ewing's sarcoma TC-71, xenografted in SCID mice [Whang-Peng J, et al. Cancer Genet Cytogenet. 1986 Apr. 1; 21(3):185208].
Treatment solutions were prepared first by mixing 1 volume of ethanolic stock solution and 1 volume of polysorbate 80, then by adding 18 volumes of glucose 5% in water.

[1] = 3.5 mg/kg per injection (total 7.0) IV days 12
[2] = 5.6 mg/kg per injection (total 11.2) IV days 12
[3] = 5.6 mg/kg per injection (total 11.2) IV days 12, listed as CABAZITAXEL
[4] = 9.0 mg/kg per injection (total 18) IV days 12
[5] = 9.0 mg/kg per injection (total 18) IV days 12, listed as CABAZITAXEL
[6] = 14.5 mg/kg per injection (total 29) IV days 12
[7] = 14.5 mg/kg per injection (total 29) IV days 12, listed as CABAZITAXEL
[8] = 3.5 mg/kg per injection (total 7.0) IV days 12, listed as DOCETAXEL
[9] = 3.5 mg/kg per injection (total 7.0) IV days 12, listed as docetaxel
[10] = 9.0 mg/kg per injection (total 18) IV days 12, listed as DOCETAXEL
[11] = 9.0 mg/kg per injection (total 18) IV days 12, listed as docetaxel
[12] = 14.5 mg/kg per injection (total 29) IV days 12, listed as DOCETAXEL

Compound: CO[C@H]1C(=O)[C@]2(C)[C@@H](OC)C[C@H]3OC[C@@]3(OC(C)=O)[C@H]2[C@H](OC(=O)c2ccccc2)[C@]2(O)C[C@H](OC(=O)[C@H](O)[C@@H](NC(=O)OC(C)(C)C)c3ccccc3)C(C)=C1C2(C)C [Cabazitaxel, 4α-acetoxy-2α-benzoyloxy-5β,20-epoxy-1β-hydroxy-7β,10β-dimethoxy-9-oxo-11-taxen-13α-yl (2R,3S)-3-tert-butoxycarbonyl-amino-2-hydroxy-3-phenylpropionate]
- Average body weight change in % per mouse at nadir [1]: −2.3%
- Biological interpretation [1]: active
- Drug death [1]: 0/7
- Regressions Complete [1]: 0/7
- Regressions Partial [1]: 0/7
- Tumor free survivors at day 120 [1]: 0/7
- day of nadir [1]: 21 days
- ΔT/ΔC in % (day 21) [1]: 27%
- Biological interpretation (3.5 mg/kg per injection (total 7.0) IV days 12, listed as CABAZITAXEL): Active
- Average body weight change in % per mouse at nadir [2]: −7.0%
- Drug death [2]: 0/7
- Regressions Complete [2]: 0/7
- Regressions Partial [2]: 6/7
- Tumor free survivors at day 120 [2]: 0/7
- day of nadir [2]: 18 days
- Biological interpretation [3]: Highly Active
- ΔT/ΔC in % (day 21) [3]: <0%
- Biological interpretation (5.6 mg/kg per injection (total 11.2) IV days 12, listed as cabazitaxel): highly active
- Tumor volume changes from baseline: Median (nMad) (5.6 mg/kg, day 26): −162 (65.2)
- Average body weight change in % per mouse at nadir [4]: −7.0%
- Drug death [4]: 0/7
- Regressions Complete [4]: 6/7
- Regressions Partial [4]: 7/7
- Tumor free survivors at day 120 [4]: 6/7
- day of nadir [4]: 18 days
- Biological interpretation [5]: Highly Active
- ΔT/ΔC in % (day 21) [5]: <0%
- Biological interpretation (9.0 mg/kg per injection (total 18) IV days 12, listed as cabazitaxel): highly active
- Tumor volume changes from baseline: Median (nMad) (9 mg/kg, day 26): −196 (51.9)
- Tumor volume changes from baseline: Median (nMad) (9 mg/kg, day 28): −196 (50.4)
- Tumor volume changes from baseline: Median (nMad) (9 mg/kg, day 30): −196 (50.4)
- Tumor volume changes from baseline: Median (nMad) (9 mg/kg, day 34): −196 (72.6)
- Average body weight change in % per mouse at nadir [6]: −9.0%
- Drug death [6]: 0/7
- Regressions Complete [6]: 7/7
- Regressions Partial [6]: 7/7
- Tumor free survivors at day 120 [6]: 6/7
- day of nadir [6]: 23 days
- Biological interpretation [7]: Highly Active
- ΔT/ΔC in % (day 21) [7]: <0%
- Biological interpretation (14.5 mg/kg per injection (total 29) IV days 12, listed as cabazitaxel): highly active
- Tumor volume changes from baseline: Median (nMad) (14.5 mg/kg, day 26): −184 (43)
- Tumor volume changes from baseline: Median (nMad) (14.5 mg/kg, day 28): −194 (47.4)
- Tumor volume changes from baseline: Median (nMad) (14.5 mg/kg, day 30): −198 (53.4)
- Tumor volume changes from baseline: Median (nMad) (14.5 mg/kg, day 34): −198 (53.4)
- Tumor volume changes from baseline: Median (nMad) (14.5 mg/kg, day 36): −180 (53.4)
- Tumor volume changes from baseline: Median (nMad) (14.5 mg/kg, day 40): −180 (53.4)
- antitumor activity compared with docetaxel (conclusion of example 2): more active than docetaxel

Compound: CC(=O)O[C@@]12CO[C@@H]1C[C@H](O)[C@@]1(C)C(=O)[C@H](O)C3=C(C)[C@@H](OC(=O)[C@H](O)[C@@H](NC(=O)OC(C)(C)C)c4ccccc4)C[C@@](O)([C@@H](OC(=O)c4ccccc4)[C@H]21)C3(C)C [Docetaxel, docetaxel]
- Average body weight change in % per mouse at nadir [1]: −1.8%
- Drug death [1]: 0/7
- Regressions Complete [1]: 0/7
- Regressions Partial [1]: 0/7
- Tumor free survivors at day 120 [1]: 0/7
- day of nadir [1]: 13 days
- Biological interpretation [8]: Inactive
- ΔT/ΔC in % (day 21) [8]: 77%
- Biological interpretation [9]: inactive
- ΔT/ΔC in % (day 21) [9]: > 40%
- Tumor volume changes from baseline: Median (nMad) (3.5 mg/kg, day 19): 629
- Tumor volume changes from baseline: Median (nMad) (3.5 mg/kg, day 21): 1044
- Average body weight change in % per mouse at nadir [2]: −13.7%
- Drug death [2]: 0/7
- Regressions Complete [2]: 0/7
- Regressions Partial [2]: 0/7
- Tumor free survivors at day 120 [2]: 0/7
- day of nadir [2]: 22 days
- ΔT/ΔC in % (day 21) [2]: 31%
- Biological interpretation (5.6 mg/kg per injection (total 11.2) IV days 12, listed as DOCETAXEL): Active
- Biological interpretation (5.6 mg/kg per injection (total 11.2) IV days 12, listed as docetaxel): active
- Tumor volume changes from baseline: Median (nMad) (5.6 mg/kg, day 19): 371
- Tumor volume changes from baseline: Median (nMad) (5.6 mg/kg, day 21): 416
- Tumor volume changes from baseline: Median (nMad) (5.6 mg/kg, day 26): 1022.5
- Average body weight change in % per mouse at nadir [4]: −10.8%
- Drug death [4]: 0/7
- Regressions Complete [4]: 0/7
- Tumor free survivors at day 120 [4]: 0/7
- day of nadir [4]: 23 days
- Biological interpretation [10]: Highly Active
- Regressions Partial [10]: 2/7
- ΔT/ΔC in % (day 21) [10]: <0%
- Biological interpretation [11]: highly active
- Regressions Partial [11]: 5/7
- Tumor volume changes from baseline: Median (nMad) (9 mg/kg, day 19): 139
- Tumor volume changes from baseline: Median (nMad) (9 mg/kg, day 21): −36
- Tumor volume changes from baseline: Median (nMad) (9 mg/kg, day 26): 158
- Tumor volume changes from baseline: Median (nMad) (9 mg/kg, day 30): 406 (252)
- Tumor volume changes from baseline: Median (nMad) (9 mg/kg, day 34): 867 (209)
- Average body weight change in % per mouse at nadir [6]: −12.4%
- Drug death [6]: 0/7
- Regressions Complete [6]: 2/7
- Regressions Partial [6]: 6/7
- Tumor free survivors at day 120 [6]: 1/7
- day of nadir [6]: 23 days
- Biological interpretation [12]: Highly Active
- ΔT/ΔC in % (day 21) [12]: <0%
- Biological interpretation (14.5 mg/kg per injection (total 29) IV days 12, listed as docetaxel): highly active
- Tumor volume changes from baseline: Median (nMad) (14.5 mg/kg, day 16): 154
- Tumor volume changes from baseline: Median (nMad) (14.5 mg/kg, day 19): −72
- Tumor volume changes from baseline: Median (nMad) (14.5 mg/kg, day 21): −130
- Tumor volume changes from baseline: Median (nMad) (14.5 mg/kg, day 26): −130
- Tumor volume changes from baseline: Median (nMad) (14.5 mg/kg, day 28): −144
- Tumor volume changes from baseline: Median (nMad) (14.5 mg/kg, day 30): −126
- Tumor volume changes from baseline: Median (nMad) (14.5 mg/kg, day 34): −49
- Tumor volume changes from baseline: Median (nMad) (14.5 mg/kg, day 36): 75 (330.6)
- Tumor volume changes from baseline: Median (nMad) (14.5 mg/kg, day 40): 763

Reference: patent US20140350273A1, “PEDIATRIC USES OF CABAZITAXEL” (AVENTIS PHARMA S.A., priority 2012, published 2014)
